The subject of the experiment is CHO cell line (GAA LEC clone R3.3) expressing rh-GAA. The experiment can be described thus: Phosphorylation efficiency of rh-GAA from cultures containing mannosidase inhibitors ([32P] incorporation by GlcNAc phosphotransferase). To be noted: increasing amounts of inhibitor alone vs no mannosidase inhibitors (FIG. 1). Type of experiment: cell-based, Chinese Hamster. On the procedure:
To determine whether mannosidase inhibitors can increase phosphorylation efficiency of recombinant human acid alpha glucosidase (rh-GAA), a CHO cell line (GAA LEC clone R3.3) expressing rh-GAA was grown in various conditions that contained different amounts of the following mannosidase the inhibitors: Kifunensin; Deoxymannojirimycin (DMJ); or combinations of both inhibitors. Conditioned media from each inhibitor condition containing 6 μg of GAA (based on GAA activity assay) was then incubated with purified bovine GlcNAc phosphotransferase (Pt'ase) and [^32P]UDP-GlcNAc. Subsequently, each phosphorylation reaction was loaded onto a concanavalin A-sepharose column to capture glycoproteins, e.g., rh-GAA. The concanavalin A-sepharose was washed and the resin was counted in a liquid scintillation counter to measure the ^32P incorporation, i.e., the extent of phosphorylation on rh-GAA. The results are summarized in Table 1 below and FIGS. 1 and 2.

The values below come from patent US20030124652A1, “Methods of producing high mannose glycoproteins in complex carbohydrate deficient cells” (NOVAZYME PHARMACEUTICALS, INC., priority 2001, published 2003).

Molecules are shown by their SMILES.

On to `OC[C@H]1NC[C@@H](O)[C@@H](O)[C@@H]1O` [DMJ only, deoxymannojirimycin], for which the “effect on the phosphorylation reaction of rh-GAA (in words)” value is given as “greatly enhance the phosphorylation reaction”.

On to `O=C1N[C@@H]2[C@@H](O)[C@@H](O)[C@H](O)[C@@H](CO)N2C1=O` [Kifunensin only, kifunensine], for which the “effect on the phosphorylation reaction of rh-GAA (in words)” value is listed as “greatly enhance the phosphorylation reaction”.
